Results published in the NIST ThermoML archive (doi:10.1016/j.jct.2006.04.005).

Assay: xn = mol fraction of the nth substance listed
Conditions: 303.15 K, 101 kPa, Liquid; for viscosity: Capillary tube (Ostwald / Ubbelohde) method; for excess molar volume: Direct dilatometry; for mass density: Pycnometric method

Cc1ccccc1[N+](=O)[O-] [2-nitrotoluene] + C[S+](C)[O-]
Conditions | excess molar volume [m3/mol] | mass density [kg/m3] | speed of sound [m/s] | viscosity [mPa·s]
x2 = 0 | – | 1153.24 | – | 1.911
x2 = 0.0815 | 2.3e-08 | – | 2039 | 1.903
x2 = 0.1525 | 5.4e-08 | – | 1986 | 1.896
x2 = 0.2422 | 9.3e-08 | – | 1922 | 1.888
x2 = 0.2913 | 1.13e-07 | – | 1888 | 1.883
x2 = 0.3415 | 1.28e-07 | – | 1849 | 1.878
x2 = 0.4026 | 1.45e-07 | – | 1807 | 1.872
x2 = 0.4505 | 1.55e-07 | – | 1773 | 1.867
x2 = 0.5119 | 1.58e-07 | – | 1731 | 1.861
x2 = 0.5523 | 1.59e-07 | – | 1704 | 1.857
x2 = 0.602 | 1.54e-07 | – | 1674 | 1.852
x2 = 0.6521 | 1.43e-07 | – | 1645 | 1.847
x2 = 0.7122 | 1.25e-07 | – | 1612 | 1.841
x2 = 0.7516 | 1.13e-07 | – | 1591 | 1.836
x2 = 0.8115 | 8.5e-08 | – | 1564 | 1.829
x2 = 0.9227 | 3.5e-08 | – | 1508 | 1.814

Cc1cccc(Cl)c1 [3-chlorotoluene] + C[S+](C)[O-]
Conditions | excess molar volume [m3/mol] | mass density [kg/m3] | speed of sound [m/s] | viscosity [mPa·s]
x2 = 0 | – | 1065.21 | 1280 | 0.78
x2 = 0.0868 | 1.2e-08 | – | 1300 | 1.02
x2 = 0.1205 | 1.7e-08 | – | 1308 | 1.073
x2 = 0.1911 | 2.8e-08 | – | 1324 | 1.164
x2 = 0.2207 | 3.1e-08 | – | – | 1.203
x2 = 0.261 | 3.7e-08 | – | 1342 | 1.249
x2 = 0.3125 | 4.1e-08 | – | 1356 | 1.305
x2 = 0.3829 | 4.7e-08 | – | 1372 | 1.38
x2 = 0.4156 | 4.9e-08 | – | 1382 | 1.415
x2 = 0.502 | 5.2e-08 | – | 1404 | 1.503
x2 = 0.5419 | 5e-08 | – | 1412 | 1.541
x2 = 0.6205 | 4.7e-08 | – | 1429 | 1.602
x2 = 0.7125 | 3.7e-08 | – | 1450 | 1.674
x2 = 0.7517 | 3.3e-08 | – | 1457 | 1.704
x2 = 0.824 | 2.5e-08 | – | 1468 | 1.735
x2 = 0.9246 | 1.3e-08 | – | 1469 | 1.783

Cc1cccc([N+](=O)[O-])c1 [3-nitrotoluene] + C[S+](C)[O-]
Conditions | excess molar volume [m3/mol] | mass density [kg/m3] | speed of sound [m/s] | viscosity [mPa·s]
x2 = 0 | – | 1147.67 | – | 1.777
x2 = 0.1052 | 3.9e-08 | – | 2002 | 1.78
x2 = 0.1512 | 6e-08 | – | 1964 | 1.781
x2 = 0.1921 | 7.9e-08 | – | 1936 | 1.782
x2 = 0.2216 | 9.2e-08 | – | 1909 | 1.783
x2 = 0.272 | 1.14e-07 | – | 1876 | 1.784
x2 = 0.305 | 1.28e-07 | – | 1851 | 1.785
x2 = 0.3641 | 1.52e-07 | – | 1812 | 1.786
x2 = 0.4121 | 1.62e-07 | – | 1778 | 1.787
x2 = 0.4772 | 1.77e-07 | – | – | 1.789
x2 = 0.5226 | 1.83e-07 | – | 1711 | 1.79
x2 = 0.6035 | 1.75e-07 | – | 1661 | 1.792
x2 = 0.724 | 1.46e-07 | – | 1598 | 1.794
x2 = 0.8126 | 1.07e-07 | – | 1555 | 1.796
x2 = 0.8905 | 6.2e-08 | – | 1518 | 1.799
x2 = 0.9607 | 2.5e-08 | – | 1489 | 1.801

Cc1ccc(Cl)cc1 [4-chlorotoluene] + C[S+](C)[O-]
Conditions | excess molar volume [m3/mol] | mass density [kg/m3] | speed of sound [m/s] | viscosity [mPa·s]
x2 = 0 | – | 1060.54 | 1271 | 0.9
x2 = 0.0768 | 1.3e-08 | – | 1292 | 1.039
x2 = 0.1105 | 2.3e-08 | – | 1302 | 1.094
x2 = 0.1546 | 2.9e-08 | – | 1312 | 1.16
x2 = 0.2045 | 3.5e-08 | – | 1327 | 1.232
x2 = 0.2543 | 4.1e-08 | – | 1340 | 1.287
x2 = 0.3111 | 4.8e-08 | – | 1357 | 1.351
x2 = 0.3704 | 5.2e-08 | – | 1372 | 1.41
x2 = 0.4904 | 5.7e-08 | – | 1401 | 1.521
x2 = 0.5174 | 5.7e-08 | – | 1410 | 1.544
x2 = 0.554 | 5.6e-08 | – | 1418 | 1.573
x2 = 0.6014 | 5.3e-08 | – | 1430 | 1.611
x2 = 0.7074 | 4.5e-08 | – | 1453 | 1.687
x2 = 0.761 | 3.8e-08 | – | 1465 | 1.725
x2 = 0.8214 | 3.2e-08 | – | 1467 | 1.76
x2 = 0.8906 | 2e-08 | – | 1468 | 1.78

C[S+](C)[O-] [dimethyl sulfoxide] + Cc1ccc(Cl)cc1
x1 = 1
Conditions | mass density [kg/m3] | speed of sound [m/s] | viscosity [mPa·s]
– | 1091.35 | 1470 | 1.803

C[S+](C)[O-] [dimethyl sulfoxide] + Cc1cccc(Cl)c1
x1 = 1
Conditions | mass density [kg/m3] | speed of sound [m/s] | viscosity [mPa·s]
– | 1091.35 | 1470 | 1.803

C[S+](C)[O-] [dimethyl sulfoxide] + Cc1cccc([N+](=O)[O-])c1
x1 = 1
Conditions | mass density [kg/m3] | speed of sound [m/s]
– | 1091.35 | 1470

C[S+](C)[O-] [dimethyl sulfoxide] + Cc1ccccc1Cl
x1 = 1
Conditions | mass density [kg/m3] | speed of sound [m/s]
– | 1091.35 | 1470

C[S+](C)[O-] [dimethyl sulfoxide] + Cc1ccccc1[N+](=O)[O-]
x1 = 1
Conditions | mass density [kg/m3] | speed of sound [m/s] | viscosity [mPa·s]
– | 1091.35 | 1470 | 1.803

C[S+](C)[O-] [dimethyl sulfoxide] + Clc1ccc(Cl)c(Cl)c1
x1 = 1
Conditions | mass density [kg/m3] | speed of sound [m/s]
– | 1091.35 | 1470

C[S+](C)[O-] [dimethyl sulfoxide] + Clc1cccc(Cl)c1
x1 = 1
Conditions | mass density [kg/m3] | speed of sound [m/s]
– | 1091.35 | 1470

C[S+](C)[O-] [dimethyl sulfoxide] + Clc1ccccc1Cl
x1 = 1
Conditions | mass density [kg/m3] | speed of sound [m/s] | viscosity [mPa·s]
– | 1091.35 | 1470 | 1.803
